Laboratory results: ChEMBL document CHEMBL1201862, “PubChem BioAssay data set” (2004)
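Exposure lasted 48 hours, with cells grown in 96-well plates and compounds tested at five concentrations. GI50 marks 50% less growth.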 Calls of active or inactive are those of the source. Rule as the data show it: active = GI50 up to about 1.1 µM and inactive = higher.

Key:
Assay in all cases: inhibition of tumour cell growth, NCI panel, 48 h
SF-539 = test system: SF-539
Hs-578T = test system: Hs-578T
U-251 = test system: U-251
ACHN = test system: ACHN
SK-MEL-28 = test system: SK-MEL-28
T47D = test system: T47D
A549 = test system: A549
HOP-92 = test system: HOP-92
UO-31 = test system: UO-31
A498 = test system: A498
MOLT-4 = test system: MOLT-4
MDA-N = test system: MDA-N
K562 = test system: K562
SF-295 = test system: SF-295
SNB-19 = test system: SNB-19
HT-29 = test system: HT-29
PC-3 = test system: PC-3
MCF7 = test system: MCF7
NCI-H460 = test system: NCI-H460
SK-MEL-2 = test system: SK-MEL-2

SMILES	GI50 (SF-539)	GI50 (Hs-578T)	GI50 (U-251)	GI50 (ACHN)	GI50 (SK-MEL-28)	GI50 (T47D)	GI50 (A549)	GI50 (HOP-92)	GI50 (UO-31)	GI50 (A498)	GI50 (MOLT-4)	GI50 (MDA-N)	GI50 (K562)	GI50 (SF-295)	GI50 (SNB-19)	GI50 (HT-29)	GI50 (PC-3)	GI50 (MCF7)	GI50 (NCI-H460)	GI50 (SK-MEL-2)
Cc1cc2c3c(c1)CCCN3CCC2	> 10 µM (inactive)	> 10 µM (inactive)	> 10 µM (inactive)	> 10 µM (inactive)	> 10 µM (inactive)	> 10 µM (inactive)	> 10 µM (inactive)	> 10 µM (inactive)	> 10 µM (inactive)	> 10 µM (inactive)	> 10 µM (inactive)	> 10 µM (inactive)	> 10 µM (inactive)	> 10 µM (inactive)	> 10 µM (inactive)	> 10 µM (inactive)	> 10 µM (inactive)	> 10 µM (inactive)	> 10 µM (inactive)	> 10 µM (inactive)
O=C(O)/C=N\N=c1[nH]c2ccccc2[nH]1	> 100 µM (inactive)	> 100 µM (inactive)	> 100 µM (inactive)	> 100 µM (inactive)	> 100 µM (inactive)	> 100 µM (inactive)	> 100 µM (inactive)	> 100 µM (inactive)	> 100 µM (inactive)	> 100 µM (inactive)	> 100 µM (inactive)	> 100 µM (inactive)	> 100 µM (inactive)	> 100 µM (inactive)	> 100 µM (inactive)	> 100 µM (inactive)	> 100 µM (inactive)	49.2 µM (inactive)	> 100 µM (inactive)	> 100 µM (inactive)
COC(=O)C1(NC(=O)C(N)CC(=O)O)C(C)C1C (stereo not given)	> 100 µM (inactive)	> 100 µM (inactive)	> 100 µM (inactive)	> 100 µM (inactive)	> 100 µM (inactive)	> 100 µM (inactive)	> 100 µM (inactive)	> 100 µM (inactive)	> 100 µM (inactive)	> 100 µM (inactive)	> 100 µM (inactive)	> 100 µM (inactive)	> 100 µM (inactive)	> 100 µM (inactive)	> 100 µM (inactive)	> 100 µM (inactive)	> 100 µM (inactive)	> 100 µM (inactive)	> 100 µM (inactive)	> 100 µM (inactive)
CC(C)C(Br)CC/C(CBr)=C(\Cl)CCl (stereo not given)	3.59 µM (inactive)	3.11 µM (inactive)	6.25 µM (inactive)	15 µM (inactive)	2.83 µM (inactive)	1.63 µM (inactive)	16.3 µM (inactive)	2.06 µM (inactive)	6.71 µM (inactive)	18.6 µM (inactive)	0.589 µM (active)	1.85 µM (inactive)	0.682 µM (active)	15.1 µM (inactive)	16.9 µM (inactive)	2.07 µM (inactive)	6.08 µM (inactive)	6.15 µM (inactive)	12.5 µM (inactive)	2.19 µM (inactive)
NCC(O)CNC(=O)c1ccc(-c2ccc(-c3ccc(C(=O)NCC(O)CN)cc3)o2)cc1 (stereo not given)	19.1 µM (inactive)	25.3 µM (inactive)	21.5 µM (inactive)	45.9 µM (inactive)	> 100 µM (inactive)	34.6 µM (inactive)	37.4 µM (inactive)	22.2 µM (inactive)	49.2 µM (inactive)	25 µM (inactive)	> 100 µM (inactive)	> 100 µM (inactive)	> 100 µM (inactive)	23.5 µM (inactive)	22 µM (inactive)	> 100 µM (inactive)	21.2 µM (inactive)	32.8 µM (inactive)	59 µM (inactive)	53.7 µM (inactive)
